The source of these data is PubChem BioAssay AID720570 (Broad Institute, 2013).

Each structure is given as a SMILES string.

For the test, the system named is TC71 Ewing sarcoma viability, CellTiter-Glo ATP, 72 h. Put plainly: TC71 Ewing sarcoma cell killing, confirmation, luminescence, cherry-picked samples, retest (AID 720570).
Take `C[C@@H]1O[C@@H](O[C@H]2C[C@@H](O)[C@]3(CO)[C@@H]4C(CC[C@]3(O)C2)[C@@]2(O)CC[C@H](C3COC(=O)C3)[C@@]2(C)C[C@H]4O)[C@H](O)[C@H](O)[C@H]1O` (some centres not stated): the AC35 is 6.91 µM.
In the case of `O=c1[nH]c(=O)n(C2C[C@H](O)[C@@H](CO)O2)cc1C(F)(F)F` (some centres not stated) it was 2.59 µM; in that of `C[C@@H]1CN([C@H](C)CO)C(=O)Cc2cc(N(C)C)ccc2O[C@H]1CN(C)Cc1ccc(C(=O)Nc2ccccc2N)cc1`, 13.6 µM.
Turning to `CC(C)(C)c1ccc(Oc2ccc(N)cn2)cc1`, the AC35 is 4.73 µM.
In the case of `COc1ccc(/C=C(/C(=O)c2cccs2)N2C=CC=CC2=C(C#N)C#N)cc1`, the AC35 is 24.6 µM.
In the case of `COc1ccc(S(=O)(=O)Nc2ccc3c(c2)C(=O)N([C@H](C)CO)C[C@@H](C)[C@@H](CN(C)Cc2ccc(C(=O)Nc4ccccc4N)cc2)O3)cc1`, the AC35 was 18.5 µM.
Under `O=C1NC(=O)N(c2ccccc2)C(=O)/C1=C\C=C\c1ccccc1` stands 12.6 µM; under `O=C(NCc1ccc(F)cc1)N1[C@H]2CC[C@@H]1C=C(c1ccc(F)cc1OCc1ccccc1)C2`, 13.9 µM.
Regarding `COCC(=O)Nc1ccc2c(c1)[C@@H]1C[C@@H](CC(=O)NCc3ccc(-c4ccccc4)cc3)O[C@@H](CO)[C@@H]1O2`, the AC35 was 12.9 µM.
In the case of `OC[C@H]1O[C@@H](n2cnc3c(NCc4ccco4)ncnc32)[C@H](O)[C@@H]1O` it was 8.41 µM; in that of `O=C(NC(c1ccc(F)cc1)c1ccc2ccccc2n1)C1CCN(Cc2cccc(C(F)(F)F)c2)CC1` (configuration not stated), 11.2 µM; in that of `N#CC(=C1C=CC(=NO)C(Cl)=C1)c1ccccc1`, 6.4 µM.
As to `N#C[C@@H]1[C@H](c2ccc(C#Cc3ccc(F)cc3)cc2)[C@@H](CO)N1C(=O)Nc1ccc(F)cc1`, the AC35 is 10.9 µM.
In the case of `C=C1C(=O)[C@@]23[C@H](O)C[C@@H]4C(C)(C)CC[C@H](O)[C@@]4(C)[C@@H]2CC[C@@H]1[C@H]3O` it was 9.15 µM.
For `CC(=O)OC1CC2(O)C3CCC4CC(O)CCC4(C)C3CCC2(C)C1C1=CC(=O)OC1` (configuration not stated), the AC35 is 0.797 µM.
`C[C@H]1CN([C@@H](C)CO)C(=O)Cc2cc(NC(=O)C3CC3)ccc2O[C@H]1CN(C)S(=O)(=O)c1ccc(Cl)cc1`: the AC35 is 17.3 µM.
Turning to `C[C@H]1CN([C@@H](C)CO)C(=O)Cc2cc(NC(=O)CCC(F)(F)F)ccc2O[C@H]1CN(C)Cc1ccc(C(=O)Nc2ccccc2N)cc1`, the AC35 was 9.19 µM.
In the case of `C[C@H](CO)N1C[C@H](C)[C@H](CN(C)Cc2ccc(C(=O)Nc3ccccc3N)cc2)Oc2ccc(NS(=O)(=O)c3cccs3)cc2C1=O` it was 8.61 µM; in that of `CCCCCCCCCCCCCCCCn1cc[n+](C)c1`, 10.2 µM.
Consider `COC(=O)c1ccccc1-c1c2ccc(=N)cc-2oc2cc(N)ccc12`, for which the AC35 is 8.14 µM.
As for `CCOc1ccc2nc(NC3=NC(c4ccc(OC)cc4)CC(=O)N3)nc(C)c2c1` (configuration not stated), the AC35 is 20.9 µM.
Under `C#CCOCCOCCOCCNc1nc(N2CCN(C(=O)CCCCCCCCCCNC(=O)Cn3cc(C[C@@H](C)O)nn3)CC2)nc(N2CCN(C(=O)CCCCCCCCCCNC(=O)[C@H](CO)n3cc(CCCSC)nn3)CC2)n1` stands 21.5 µM; under `COc1ccc(-c2nc3c(s2)CCc2onc(-c4ccc(OC)cc4)c2-3)cc1`, 13.3 µM; under `Nc1nc(N)c2c(ccc3nccc32)[nH]1`, 3.24 µM.
On to `CC(=NNc1ccc2ccccc2n1)c1ccccn1`, for which the AC35 is 1.57 µM.
Under `O=C1NC(=O)N(Cc2ccc(F)cc2)C(=O)/C1=C\C=C\c1ccco1` stands 9.09 µM; under `COc1ccc(-c2ccc3c(c2)[C@H]2[C@H](CCN2S(=O)(=O)c2ccc(OC)cc2)[C@@H](CO)N3C)cc1`, 4.48 µM.
With `CC(=NNc1cc(C)c2ccccc2n1)c1ccccn1`, the AC35 is 1.38 µM.
`O=C1CCCC2=C1C(c1ccccn1)Nc1ccc(C(=O)c3ccccc3)cc1N2` (configuration not stated): the AC35 is 17.4 µM.
In the case of `CCOC(=O)[C@]12Cc3ccc(C)cc3[C@H]1N(C1CCCCC1)C(=O)c1ccccc12` it was 12.1 µM; in that of `Cc1cccc(N2CCN(C3C(=O)Nc4ccccc4-n4nnnc43)CC2)c1C` (configuration not stated), 13.9 µM; in that of `COc1ccc(Cn2cc3c(-c4ccc(F)cc4)nnc-3c3cc(OC)c(OC)cc32)cc1`, 13.4 µM.
In the case of `CC(=O)ON=C1C=CC(=C(C#N)c2ccccc2)C=C1` it was 6.03 µM; in that of `COc1ccccc1-c1ccc(OCCCN2CCC(C(O)(c3ccccc3)c3ccccc3)CC2)cc1`, 13.7 µM.
Turning to `Cc1cccc(/C=C(\c2nc3ccccc3[nH]2)S(=O)(=O)c2ccccc2)c1`, the AC35 is 9.6 µM.
In the case of `O=C1NC2C(=CC(O)C(O)C2O)c2cc3c(cc21)OCO3` (configuration not stated) it was 3.67 µM; in that of `CC(C)=CCC/C(C)=C/CN1C(=O)N(c2ccc(F)cc2)[C@H]2C[C@@H](c3ccccc3)[C@@H](C)[C@@H](C(=O)N3CCOCC3)C[C@H]21`, 4.4 µM; in that of `C[C@H]1CN([C@@H](C)CO)C(=O)Cc2cc(NC(=O)CCCCCC(=O)Nc3ccccc3N)ccc2O[C@H]1CN(C)Cc1ccc(Oc2ccccc2)cc1`, 11.5 µM.
Under `CC(C)N1C/C(=C/c2cccnc2)C(=O)/C(=C/c2cccnc2)C1` stands 22.6 µM; under `C[C@H]1CCCCO[C@H](CN(C)Cc2ccc(C(F)(F)F)cc2)[C@@H](C)CN([C@@H](C)CO)C(=O)c2cc(NC(=O)Nc3ccccc3)ccc2O1`, 12.4 µM; under `C[C@@H]1CN([C@@H](C)CO)C(=O)c2cc(NC(=O)Nc3ccccc3)ccc2O[C@@H]1CN(C)Cc1ccc(C(=O)Nc2ccccc2N)cc1`, 6.58 µM.
In the case of `C[C@@H]1CN([C@H](C)CO)C(=O)c2cc(NS(=O)(=O)c3ccc(Cl)cc3)ccc2O[C@@H]1CN(C)Cc1ccc(Cl)c(Cl)c1` it was 21.5 µM; in that of `O=c1c(Cl)cc(Cl)nn1-c1ccccc1`, 13 µM; in that of `Cc1ccc(/C=N/Nc2ccnc3cc(Cl)ccc23)c(C)c1`, 11.8 µM.
`COc1cc2oc3cc(C#Cc4ccc(N)cc4)ccc3c(=O)c2cc1OC`: the AC35 was 6.86 µM.
Take `Nc1ccc(Cn2ccc3c4c(N)nc(N)nc4ccc32)cc1`: the AC35 was 0.0342 µM.
For the compound `C[C@H]1CN([C@@H](C)CO)C(=O)Cc2cc(NC(=O)CCCCCC(=O)Nc3ccccc3N)ccc2O[C@H]1CN(C)Cc1ccc(Cl)c(Cl)c1`, the AC35 is 14.1 µM.
In the case of `C[C@@H]1CN([C@@H](C)CO)C(=O)c2cc(NS(=O)(=O)c3ccc(Cl)cc3)ccc2O[C@@H]1CN(C)Cc1ccc(C(=O)Nc2ccccc2N)cc1` it was 12.7 µM; in that of `C[C@@H]1CN([C@@H](C)CO)C(=O)c2cc(NS(=O)(=O)c3ccc(F)cc3)ccc2O[C@@H]1CN(C)Cc1ccc(C(=O)Nc2ccccc2N)cc1`, 17.5 µM.
Under `O=C(Nc1ccccc1F)N1CCCCN2[C@H](CO)[C@H](c3ccc(/C=C/c4ccccc4)cc3)[C@H]2C1` stands 10.6 µM.
As for `O=C(NC1CCCC1)N1CCCCN2[C@@H](CO)[C@@H](c3ccc(/C=C/c4ccccc4)cc3)[C@@H]2C1`, the AC35 was 13.6 µM.
In the case of `COc1ccccc1C(CCNCc1ccc(N(C)C)cc1)c1ccc(OC(C)C)cc1` (configuration not stated) it was 10.9 µM; in that of `COc1cc2c(cc1OC)C(C)N(C(=O)c1cc(Cl)nc(Cl)c1)CC2` (configuration not stated), 11.9 µM; in that of `COc1ccc(/C=C/C(=O)c2cc(F)ccc2OC(=O)c2ccccc2OC)cc1OC`, 1.59 µM.
In the case of `O=C(CCc1ccccc1)NC(c1cccs1)c1cc(Cl)c2cccnc2c1O` (configuration not stated) it was 2.81 µM.
In the case of `CC1(C(=O)NCc2ccco2)Cc2c(-c3cccc(C(N)=O)c3)ccnc2O1` (configuration not stated) it was 7.99 µM; in that of `COc1ccc(OC)c(/C=C/c2ccnc3ccccc23)c1`, 2.31 µM; in that of `CN1C(=O)c2cc(NC(=O)c3ccc(C(F)(F)F)cc3)ccc2OC[C@@H]2O[C@@H](CC(=O)NC3Cc4ccccc4C3)CC[C@H]21`, 4.86 µM.
On to `CCCCc1c(-c2ccccc2OC)ncn1Cc1ccc(C(C)(C)C)cc1`, for which the AC35 is 13.1 µM.
In the case of `CC(=O)OC1CC(OC2C(O)CC(OC3C(O)CC(OC4CCC5(C)C(CCC6C5CC(O)C5(C)C(C7=CC(=O)OC7)CCC65O)C4)OC3C)OC2C)OC(C)C1OC1OC(CO)C(O)C(O)C1O` (configuration not stated) it was 0.589 µM; in that of `O=c1ccc2[n+]([O-])c3ccc(O)cc3oc-2c1`, 9.82 µM; in that of `CC(C)Oc1ccc(Br)cc1C(=O)N/N=C/c1c[nH]c2ccccc12`, 20.1 µM.
On to `Cc1ccccc1S(=O)(=O)N1CC[C@@H]2[C@@H](CO)Nc3ccc(-c4ccc(C#N)cc4)cc3[C@@H]21`, for which the AC35 was 4.8 µM.
Under `CC1(C)Oc2cc3oc(-c4cc(O)cc(O)c4)cc3cc2CC1O` (configuration not stated) stands 12.5 µM; under `C[C@@H]1CCCCO[C@H](CN(C)Cc2ccc(C(=O)Nc3ccccc3N)cc2)[C@@H](C)CN([C@@H](C)CO)C(=O)c2cc(NS(=O)(=O)c3ccc(Cl)cc3)ccc2O1`, 13.6 µM.
Turning to `COc1cc(C(=O)N2CCC(N3CCN(C)CC3)CC2)ccc1Nc1ncc2c(n1)N(C)c1ccccc1C(=O)N2C`, the AC35 was 11.4 µM.
In the case of `COc1ccc(C2c3cc4c(cc3OC(NNC(N)=O)C2C)OCO4)cc1` (configuration not stated) it was 12 µM.
For `COc1ccc(OC)c(-c2nnc3n2N=C(c2ccc(OC)c(OC4CCOC4)c2)CS3)c1` (configuration not stated), the AC35 is 3.98 µM.
Take `C=C(C(=O)c1ccccc1)C(C)C(=C)C(=O)c1ccccc1`: the AC35 is 11.1 µM.
In the case of `CC(C)(C)c1ccc(Oc2ccc(NC(=O)c3ccccc3C(=O)O)cn2)cc1` it was 10.3 µM.
As for `Cc1cc(C(=O)Nc2ccc3c(c2)C(=O)N(C)[C@@H]2CC[C@H](CC(=O)N[C@H](C)c4ccccc4)O[C@H]2CO3)no1`, the AC35 was 14 µM.
For `Cc1c(Cl)cccc1NC(=O)CCC(=O)N/N=C/c1ccc[nH]1`, the AC35 is 4.44 µM.
For the compound `Cc1ccc(S(=O)(=O)Nc2ccc3c(c2)C(=O)N([C@@H](C)CO)C[C@@H](C)[C@H](CN(C)Cc2ccc(C(F)(F)F)cc2)OCCCC[C@H](C)O3)cc1`, the AC35 is 11.7 µM.
Consider `COc1ccc(/C=C/C(=O)c2ccc(C(=O)/C=C/c3ccc(OC)c(OC)c3)cc2)cc1OC`, for which the AC35 was 20.4 µM.
Under `C[C@H]1CN([C@@H](C)CO)C(=O)Cc2cc(NC(=O)CCCCCC(=O)Nc3ccccc3N)ccc2O[C@H]1CN(C)Cc1ccc(C(F)(F)F)cc1` stands 11.6 µM; under `CCOc1ccc(N=Nc2ccc(O)c3ncccc23)cc1`, 2.8 µM; under `Cc1cc(C(=O)Nc2ccc3c(c2)C(=O)N(C)[C@@H]2CC[C@@H](CC(=O)NCc4ccc(-c5ccccc5)cc4)O[C@H]2CO3)no1`, 6.73 µM.
